Measurements from US12286442B2, “Methods and materials for increasing transcription factor eb polypeptide levels” (University of Pittsburgh—Of the Commonwealth System of …, priority 2019, dated 2025).

Key:
TFEB = test: High content screen measuring TFEB nuclear accumulation (TFEB nuclear/cytosol ratio) in BEAS-2B cells stably expressing TFEB-EGFP; assay type: cell-based, human; settings: 18 hours incubation
In short: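 Readout: lowest compound concentration giving a 25% rise in nuclear/cytosol TFEB-GFP ratio, from DAPI-masked nuclear and mask-expanded cytosolic signals. Cells (BEAS-2B, TFEB-EGFP stable, ~2300–2500/well) rested 8 hours, then treated 18 hours with compound serial dilutions in 2% FBS medium before PFA fixation and DAPI staining.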

BEAS-2B cells = test: Toxicity: compound concentration needed to induce greater than 50 percent of cell loss; assay type: cell-based, human; settings: 18 hours incubation
In short: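 Reported value is the concentration giving greater than 50 percent cell loss, grouped into bins (≥25 μM; between 1 and 25 μM; ≤1 μM as "+++"). Measured by high-content imaging of DAPI-stained BEAS-2B TFEB-EGFP cells fixed after 18 h compound exposure.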

Row | SMILES | efficacy (minimal compound concentration needed to increase TFEB nuclear/cytosol ratio by 25%) (TFEB) | toxicity (compound concentration needed to induce greater than 50 percent of cell loss) (BEAS-2B cells)
1 | CC(C)(C)c1cc2cc(Nc3nc(-c4ccncc4)nc4ccncc34)ccc2[nH]1 [Compound 124] | +++ (“+++” equals ≤1 μM) | + (cell loss of greater than 50 percent at a concentration that equals or is greater than 25 μM was represented as)
2 | c1cc(-c2nc(Nc3ccc4cn[nH]c4c3)c3cnccc3n2)ccn1 [Compound 125] | ++ (“++” equals between ≤25 μM and >1 μM) | + (cell loss of greater than 50 percent at a concentration that equals or is greater than 25 μM was represented as)
3 | Cc1c(Nc2nc(-c3ccncc3)nc3ccncc23)ccc2[nH]ccc12 [Compound 126] | ++ (“++” equals between ≤25 μM and >1 μM) | + (cell loss of greater than 50 percent at a concentration that equals or is greater than 25 μM was represented as)
4 | c1cnc2ccc(Nc3nc(-c4ccncc4)nc4ccncc34)cc2c1 [Compound 127] | ++ (“++” equals between ≤25 μM and >1 μM) | + (cell loss of greater than 50 percent at a concentration that equals or is greater than 25 μM was represented as)
5 | Cc1nc2ccc(Nc3nc(-c4ccncc4)nc4ncccc34)cc2s1 [Compound 128] | +++ (“+++” equals ≤1 μM) | + (cell loss of greater than 50 percent at a concentration that equals or is greater than 25 μM was represented as)
6 | CCc1nc2ccc(Nc3nc(-c4ccncc4)nc4ncccc34)cc2s1 [Compound 129] | +++ (“+++” equals ≤1 μM) | + (cell loss of greater than 50 percent at a concentration that equals or is greater than 25 μM was represented as)
7 | CC(C)c1nc2ccc(Nc3nc(-c4ccncc4)nc4ncccc34)cc2s1 [Compound 130] | +++ (“+++” equals ≤1 μM) | + (cell loss of greater than 50 percent at a concentration that equals or is greater than 25 μM was represented as)
8 | c1cnc2nc(-c3ccncc3)nc(Nc3ccc4nc(C5CC5)sc4c3)c2c1 [Compound 131] | +++ (“+++” equals ≤1 μM) | + (cell loss of greater than 50 percent at a concentration that equals or is greater than 25 μM was represented as)
9 | c1cnc2nc(-c3ccncc3)nc(Nc3ccc4ncsc4c3)c2c1 [Compound 132] | +++ (“+++” equals ≤1 μM) | + (cell loss of greater than 50 percent at a concentration that equals or is greater than 25 μM was represented as)
10 | CC(C)(C)c1cc2cc(Nc3nc(-c4ccncc4)nc4ncccc34)ccc2[nH]1 [Compound 134] | +++ (“+++” equals ≤1 μM) | + (cell loss of greater than 50 percent at a concentration that equals or is greater than 25 μM was represented as)
11 | c1cnc2nc(-c3ccncc3)nc(Nc3ccc4cn[nH]c4c3)c2c1 [Compound 135] | ++ (“++” equals between ≤25 μM and >1 μM) | + (cell loss of greater than 50 percent at a concentration that equals or is greater than 25 μM was represented as)
12 | c1cnc2nc(-c3ccncc3)nc(Nc3ccc4cnsc4c3)c2c1 [Compound 136] | +++ (“+++” equals ≤1 μM) | + (cell loss of greater than 50 percent at a concentration that equals or is greater than 25 μM was represented as)
13 | Cc1c(Nc2nc(-c3ccncc3)nc3ncccc23)ccc2[nH]ccc12 [Compound 137] | +++ (“+++” equals ≤1 μM) | + (cell loss of greater than 50 percent at a concentration that equals or is greater than 25 μM was represented as)
14 | c1cnc2ccc(Nc3nc(-c4ccncc4)nc4ncccc34)cc2c1 [Compound 138] | +++ (“+++” equals ≤1 μM) | + (cell loss of greater than 50 percent at a concentration that equals or is greater than 25 μM was represented as)
15 | c1cc(-c2nc(Nc3ccc4cnsc4c3)c3cnccc3n2)ccn1 [Compound 139] | + (“+” equals >25 μM) | + (cell loss of greater than 50 percent at a concentration that equals or is greater than 25 μM was represented as)
16 | Cc1nc2ccc(Nc3nc(-c4ccncc4)nc4ccncc34)cc2o1 [Compound 140] | + (“+” equals >25 μM) | + (cell loss of greater than 50 percent at a concentration that equals or is greater than 25 μM was represented as)
17 | Cn1cnc2ccc(Nc3nc(-c4ccncc4)nc4ccccc34)cc21 [Compound 141] | +++ (“+++” equals ≤1 μM) | ++ (cell loss of greater than 50 percent at a concentration less than 25 μM and greater than 1 μM was represented as)
18 | c1ccc2c(Nc3ccc4ncoc4c3)nc(-c3ccncc3)nc2c1 [Compound 142] | +++ (“+++” equals ≤1 μM) | + (cell loss of greater than 50 percent at a concentration that equals or is greater than 25 μM was represented as)
19 | Cc1nc2cc(Cl)c(Nc3nc(-c4ccncc4)nc4ccccc34)cc2o1 [Compound 143] | +++ (“+++” equals ≤1 μM) | + (cell loss of greater than 50 percent at a concentration that equals or is greater than 25 μM was represented as)
20 | Cc1nc2cc(Cl)c(Nc3nc(-c4ccncc4)nc4ccncc34)cc2o1 [Compound 144] | + (“+” equals >25 μM) | + (cell loss of greater than 50 percent at a concentration that equals or is greater than 25 μM was represented as)
21 | Cc1nc2cc(Cl)c(Nc3nc(-c4ccncc4)nc4ncccc34)cc2o1 [Compound 145] | +++ (“+++” equals ≤1 μM) | + (cell loss of greater than 50 percent at a concentration that equals or is greater than 25 μM was represented as)
